Assay results reported in paper PMC9322761, “Design, Synthesis and Biological Characterization of Histone Deacetylase 8 (HDAC8) Proteolysis Targeting Chimeras (PROTACs) with Anti-Neuroblastoma Activity” (International Journal of Molecular Sciences, 2022).
Where two headings read alike, the source gives them in different places.

Experiments:
[1] = target: T1, HDAC8 (Homo sapiens, UniProt Q9BY41); test: In vitro HDAC8 activity assay (Fluor de Lys-HDAC8); format: biochemical; design: made in house; settings: for SI (HDAC6/HDAC8): selectivity index, HDAC6 over HDAC8
T1 sequence (Q9BY41 1-377): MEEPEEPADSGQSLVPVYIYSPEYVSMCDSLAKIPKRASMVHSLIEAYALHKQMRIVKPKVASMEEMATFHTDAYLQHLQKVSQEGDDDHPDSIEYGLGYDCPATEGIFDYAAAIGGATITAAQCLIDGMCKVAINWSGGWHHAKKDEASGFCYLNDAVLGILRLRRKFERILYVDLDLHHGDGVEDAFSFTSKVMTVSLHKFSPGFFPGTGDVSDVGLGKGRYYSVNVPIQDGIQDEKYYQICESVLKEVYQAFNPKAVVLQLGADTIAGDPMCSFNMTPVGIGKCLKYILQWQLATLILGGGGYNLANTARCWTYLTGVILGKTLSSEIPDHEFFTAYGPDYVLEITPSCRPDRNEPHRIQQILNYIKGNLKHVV
Procedure: Recombinant hHDAC8 was produced by Romier et al. in Strasbourg. The HDAC8 activity assays were performed according to the commercial HDAC8 Fluorometric Drug Discovery Kit (Fluor de Lys(R)-HDAC8, BML-KI178) corresponding to the instructions of the manufacturer. As substrate a tetrapeptide connected to aminomethylcoumarin (AMC) H2N-Arg- His-Lys(Ac)-Lys(Ac)-AMC was synthesized as previously described. The enzyme was incubated for 90 min at 37 °C, with a substrate concentration of 50 µM and increasing concentrations of inhibitors. The stop-solution-containing inhibitor was added to stop the hHDAC8 activity, and Trypsin was added to release the AMC. The solution was incubated for 20 min at 37 °C to develop the assay.
(§1) Inhibition was measured at increasing concentration and IC50 was calculated by nonlinear regression with Origin 9.0G software.

[2] = target: T1, HDAC8; design: made in house; method as in PMID 29190092, PMID 26937828; settings: Table 2, previously published benzhydroxamate inhibitors; read-out: HDAC8 IC50; cited from earlier work
[3] = system: acetylated SMC3; test: Acetylation of HDAC8 substrate SMC3 in SK-N-BE(2)-C cells (Western blot); format: cell-based, human; settings: 10 µM
Procedure: To test the degradation of HDAC8 with the developed PROTACs, we selected the most promising compounds obtained from the cellular neuroblastoma testing; namely CRBN_1b, CRBN_1d, CRBN_1e, HyT_1m, and HyT_1p. Whole cell lysates from treated SK-N-BE(2)-C neuroblastoma cells were taken and the protein levels for HDAC8 and the acetylation of its substrate SMC3 were determined (Figure 6). As a control for HDAC6, we also assessed acetylation levels of α-tubulin. […]. A clear dose-dependent degradation of HDAC8 by PROTAC CRBN_1e was observed (Figure 6C). After 48 h, the HDAC8 protein level was back to baseline, presumably due to de novo protein synthesis. […]. Western blot analysis was performed as described previously (Kolbinger et al.). […]
Figure 6 (A) SK-N-BE(2)-C neuroblastoma cells were treated for indicated time points with 10 µM of PROTACs. Degradation of HDAC8 and acetylation of HDAC8 target was analyzed via Western blot. […] Acetylation of HDAC8 target SMC3 and HDAC6 target tubulin, as well as total HDAC8 levels, were assessed by Western blot. Quantified ac-SMC3 or ac-tubulin expression, respectively, was normalized to the respective tubulin loading control and to the solvent control (DMSO). This quantification is reflected by the numbers below each blot. […] Total HDAC6, total HDAC1, total HDAC8, and acetyl-histone H4 expression levels, were assessed by Western blot. […]

[4] = target: T1, HDAC8; test: HDAC8 degradation in SK-N-BE(2)-C neuroblastoma cells (Western blot); format: cell-based; design: endogenous in cells; host or cells: SK-N-BE(2)-C; settings: SK-N-BE(2)-C cells, up to 10 µM, Western blot
Procedure: Whole cell lysates from treated SK-N-BE(2)-C neuroblastoma cells were taken and the protein levels for HDAC8 and the acetylation of its substrate SMC3 were determined (Figure 6). As a control for HDAC6, we also assessed acetylation levels of α-tubulin. […] Western blot analysis was performed as described previously (Kolbinger et al.).
Figure 6 (A) SK-N-BE(2)-C neuroblastoma cells were treated for indicated time points with 10 µM of PROTACs. Degradation of HDAC8 and acetylation of HDAC8 target was analyzed via Western blot. (B) SK-N-BE(2)-C neuroblastoma cells were treated for 6 h with indicated concentrations of HyT_1p, CRBN_1b and HyT_1m. Acetylation of HDAC8 target SMC3 and HDAC6 target tubulin, as well as total HDAC8 levels, were assessed by Western blot. Quantified ac-SMC3 or ac-tubulin expression, respectively, was normalized to the respective tubulin loading control and to the solvent control (DMSO). This quantification is reflected by the numbers below each blot. […] Total HDAC6, total HDAC1, total HDAC8, and acetyl-histone H4 expression levels, were assessed by Western blot. Total GAPDH protein levels served as a loading control (LC). * unspecific bands obtained through reprobing of the membrane.

[5] = system: IMR-32 cells; test: Cell viability / proliferation (trypan blue, viable cell count) in neuroblastoma cells; format: cell-based, human; settings: 5 and 10 µM
Procedure: Moreover, we treated neuroblastoma IMR-32 cells with the remaining PROTACs and counted the resulting viable cells. We quantified the percentage of dead cells as shown in (Figure 5B,C). In addition, cell proliferation was assessed via counting of viable cells (Figure 5D,E). […] As reference, the HDAC8 inhibitor PCI-34501 was used.
Adherent cells were detached using trypsin–EDTA (ThermoFisher Scientific, Bremen, Germany) and pooled with corresponding supernatant, centrifuged, and resuspended in 1 mL of cell culture medium. Cell viability (viable cell number, % viability, % dead cells) was measured by automated trypan blue staining using the Vi-Cell XR Cell Viability Analyzer (Beckman Coulter, Krefeld, Germany).
Figure 5 (A) Neuroblastoma SK-N-BE(2)-C cells; Colony Assay, 10 days (compound treatment within first 96 h). Stained with crystal violet and quantified with ImageJ. (B,C) Trypan Blue assay for detection of dead cells. Neuroblastoma IMR-32 cells were either treated with 5 µM (B) or 10 µM (C). (D,E) Cell proliferation assessed via counting of viable cells. IMR-32 cells were either treated with 5 µM (D) or 10 µM (E) PROTACs. HDAC8i PCI-34501 served as a positive control, untreated (MEM) and solvent (DMSO) treated cells served as negative controls.

[6] = target: HDAC1 (Homo sapiens, UniProt Q13547); test: In vitro HDAC inhibitory activity assay, recombinant HDAC1 (fluorogenic substrate ZMAL); format: biochemical; design: purchased BPS Biosciences
Sequence of HDAC1 (Q13547 whole entry): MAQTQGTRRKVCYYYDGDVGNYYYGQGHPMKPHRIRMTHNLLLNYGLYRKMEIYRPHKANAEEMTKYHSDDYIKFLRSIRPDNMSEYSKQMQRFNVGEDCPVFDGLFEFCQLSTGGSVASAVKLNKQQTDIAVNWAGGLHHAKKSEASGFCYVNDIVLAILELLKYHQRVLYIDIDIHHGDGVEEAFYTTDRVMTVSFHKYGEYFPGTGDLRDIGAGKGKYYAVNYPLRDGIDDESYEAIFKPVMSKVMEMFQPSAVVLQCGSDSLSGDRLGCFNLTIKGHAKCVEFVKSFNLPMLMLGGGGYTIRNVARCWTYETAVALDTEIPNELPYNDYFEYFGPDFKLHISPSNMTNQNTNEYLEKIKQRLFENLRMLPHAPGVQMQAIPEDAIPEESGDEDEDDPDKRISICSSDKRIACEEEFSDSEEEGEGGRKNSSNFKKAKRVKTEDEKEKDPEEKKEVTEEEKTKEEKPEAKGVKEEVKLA
Procedure: (§2) The in vitro testing on recombinant HDACs was performed as previously described. Recombinant human HDAC1 and −6 were purchased from BPS Biosciences. The enzyme inhibition was determined by using a reported homogenous fluorescence assay. […] Fluorescence intensity was measured at an excitation wavelength of 390 nm and an emission wavelength of 460 nm in a microtiter plate reader (BMG Polarstar).
as §1

[7] = target: T2, HDAC6 (Homo sapiens, UniProt Q9UBN7); test: In vitro HDAC inhibitory activity assay, recombinant HDAC6 (fluorogenic substrate ZMAL); format: biochemical; design: purchased BPS Biosciences; settings: Table 1, PROTACs; read-out: HDAC6 IC50
T2 sequence (Q9UBN7 1-1215): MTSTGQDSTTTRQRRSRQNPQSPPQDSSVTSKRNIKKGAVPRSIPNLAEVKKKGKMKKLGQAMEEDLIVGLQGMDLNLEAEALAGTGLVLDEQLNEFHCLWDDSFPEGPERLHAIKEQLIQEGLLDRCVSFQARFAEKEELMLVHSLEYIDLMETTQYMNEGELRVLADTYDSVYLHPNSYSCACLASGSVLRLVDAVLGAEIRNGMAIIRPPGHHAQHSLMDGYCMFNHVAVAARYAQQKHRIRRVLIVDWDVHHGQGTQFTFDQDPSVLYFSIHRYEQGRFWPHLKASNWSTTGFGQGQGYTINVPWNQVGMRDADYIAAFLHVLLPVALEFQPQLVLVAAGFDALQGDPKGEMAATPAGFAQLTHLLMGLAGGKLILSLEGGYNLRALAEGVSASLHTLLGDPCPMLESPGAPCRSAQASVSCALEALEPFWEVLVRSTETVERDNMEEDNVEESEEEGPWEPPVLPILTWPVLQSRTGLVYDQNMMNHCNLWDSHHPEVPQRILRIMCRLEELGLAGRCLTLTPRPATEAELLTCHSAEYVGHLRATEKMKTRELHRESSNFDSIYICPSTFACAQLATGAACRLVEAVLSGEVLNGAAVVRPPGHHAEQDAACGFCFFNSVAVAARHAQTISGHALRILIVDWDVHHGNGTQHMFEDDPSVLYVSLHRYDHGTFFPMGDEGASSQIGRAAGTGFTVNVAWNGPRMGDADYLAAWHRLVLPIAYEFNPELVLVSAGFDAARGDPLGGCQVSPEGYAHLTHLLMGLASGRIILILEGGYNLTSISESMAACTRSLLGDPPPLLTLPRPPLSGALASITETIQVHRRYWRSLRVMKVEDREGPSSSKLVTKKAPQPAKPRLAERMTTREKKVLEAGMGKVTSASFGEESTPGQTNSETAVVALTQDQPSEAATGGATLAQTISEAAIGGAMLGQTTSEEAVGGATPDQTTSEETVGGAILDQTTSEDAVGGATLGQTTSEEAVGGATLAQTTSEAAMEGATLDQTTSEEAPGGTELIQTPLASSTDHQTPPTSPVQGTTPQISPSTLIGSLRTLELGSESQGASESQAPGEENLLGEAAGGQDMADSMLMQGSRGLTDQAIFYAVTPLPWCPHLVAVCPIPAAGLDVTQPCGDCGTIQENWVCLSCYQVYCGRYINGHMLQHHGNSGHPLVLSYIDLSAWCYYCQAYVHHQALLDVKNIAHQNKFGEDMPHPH
Procedure: as §2, §1

[8] = system: HDAC8; design: method as in PMID 35311871; settings: Jurkat cells; cited from earlier work

SI (HDAC6/HDAC8) [1] | HDAC8 degradation [4] | IC50 ([1]; Table 1, PROTACs) [µM] | IC50 [7] [µM] | SMILES | IC50 [2] [µM] | Effect in cell proliferation assay (viable cell count) [5] | further results
28 |  |  |  | COc1ccc(C(=O)NO)cc1NC(=O)c1ccccc1 [2b] | 0.09 ± 0.02 |  | 
 |  |  |  | O=C(NO)c1cccc(NCc2ccccc2)c1 [2d] | 0.14 ± 0.01 |  | 
 | no HDAC8 degradation |  |  | Cc1ccc(C(=O)NO)cc1NCc1ccc(OCc2cn(Cc3ccccc3)nn2)cc1 [33b] |  |  | Hyperacetylation of HDAC8 substrate SMC3 [3]: hyperacetylation of SMC3; IC50 ([1]; negative control without pomalidomide warhead): 0.698 ± 0.041 µM
 | failed to degrade HDAC8 | 0.57 ± 0.11 | 0.25 ± 0.08 | COc1ccc(C(=O)NO)cc1NC(=O)c1ccc(NC(=O)CCCCCNC(=O)CC23CC4CC(CC(C4)C2)C3)cc1 [HyT_1m] |  | less significant | inhibition at 1 µM ([6]; 1 µM, read-out: HDAC1 % inhib. at given conc.): 47.7%; inhibition at 10 µM ([6]; 10 µM, read-out: HDAC1 % inhib. at given conc.): 81.9%
3 |  | 0.11 ± 0.01 | 0.31 ± 0.01 | COc1ccc(C(=O)NO)cc1NC(=O)c1ccc(NC(=O)CCCCCCC(=O)N[C@H](C(=O)N2C[C@H](O)C[C@H]2C(=O)NCc2ccc(-c3scnc3C)cc2)C(C)(C)C)cc1 [VHL_1k] |  | less significant | IC50 ([6]; Table 1, PROTACs, read-out: HDAC1 IC50): > 20 µM
 |  |  |  | O=C1CCC(N2C(=O)c3cccc(NCCCCCCCCCCCNC(=O)c4cccc(SCc5cn(-c6cccc(C(=O)NO)c6)nn5)c4)c3C2=O)C(=O)N1 (stereo not drawn) [XIII] |  |  | HDAC8 degradation [8]: efficient degradation of HDAC8 enzyme
